Reference: ChEMBL document CHEMBL3396992, “Synthesis and biological evaluation of pyrazolylthiazole carboxylic acids as potent anti-inflammatory-antimicrobial agents” (2015)
≈ marks a conversion by molar mass, not a printed value. Calls of active or inactive are those of the source. The calls are words filed in the database; no cut-off is given here.

Columns and labels:
[1] = tested on: Staphylococcus aureus; test: Antimicrobial activity against Staphylococcus aureus MTCC 96 assessed as growth inhibition after 24 hrs by agar well diffusion method; format: functional
[2] = tested on: Rattus norvegicus; test: Antiinflammatory activity against carrageenan-induced paw edema male Wistar albino rat at 50 mg/kg, ip administered 30 mins prior to carrageenan-challenge measured after 2 hrs relative to control; format: functional; details: route intraperitoneal
[3] = tested on: Bacillus subtilis; test: Antimicrobial activity against Bacillus subtilis MTCC 121 assessed as growth inhibition after 24 hrs by agar well diffusion method; format: functional
[4] = tested on: Rattus norvegicus; test: Antiinflammatory activity against carrageenan-induced paw edema male Wistar albino rat at 50 mg/kg, ip administered 30 mins prior to carrageenan-challenge measured after 3 hrs relative to control; format: functional; details: route intraperitoneal
[5] = tested on: Rattus norvegicus; test: Antiinflammatory activity against carrageenan-induced paw edema male Wistar albino rat assessed as edema volume at 50 mg/kg, ip administered 30 mins prior to carrageenan-challenge measured after 2 hrs (reference value: 1.21 +/- 0.16 mL); format: functional; details: route intraperitoneal
[6] = tested on: Candida albicans; test: Antimicrobial activity against Candida albicans MTCC 3017 assessed as growth inhibition after 24 hrs by agar well diffusion method; format: functional; details: MTCC 3017, 24 h
[7] = tested on: Candida albicans; test: Antimicrobial activity against Candida albicans MTCC 3017 assessed as growth inhibition at 4 mg/ml after 24 hrs by agar well diffusion method; format: functional; details: MTCC 3017, 24 h, read-out: DIZ
[8] = tested on: Saccharomyces cerevisiae; test: Antimicrobial activity against Saccharomyces cerevisiae MTCC 170 assessed as growth inhibition at 4 mg/ml after 24 hrs by agar well diffusion method; format: functional; details: for zone of inhibition at 4000 µg/mL: MTCC 170, 24 h, read-out: DIZ
[9] = tested on: Escherichia coli; test: Antimicrobial activity against Escherichia coli MTCC 1652 assessed as growth inhibition at 4 mg/ml after 24 hrs by agar well diffusion method; format: functional, organism-based
[10] = tested on: Rattus norvegicus; test: Antiinflammatory activity against carrageenan-induced paw edema male Wistar albino rat assessed as edema volume at 50 mg/kg, ip administered 30 mins prior to carrageenan-challenge measured after 3 hrs (reference value: 1.73 +/- 0.09 mL); format: functional; details: route intraperitoneal
[11] = tested on: Rattus norvegicus; test: Antiinflammatory activity against carrageenan-induced paw edema male Wistar albino rat at 50 mg/kg, ip administered 30 mins prior to carrageenan-challenge measured after 4 hrs relative to control; format: functional; details: route intraperitoneal
[12] = tested on: Pseudomonas aeruginosa; details: MTCC 741, 4 mg/ml
Description: Antimicrobial activity against Pseudomonas aeruginosa MTCC 741 assessed as growth inhibition at 4 mg/ml after 24 hrs by agar well diffusion method

[13] = tested on: Staphylococcus aureus; test: Antimicrobial activity against Staphylococcus aureus MTCC 96 assessed as growth inhibition at 4 mg/ml after 24 hrs by agar well diffusion method; format: functional; details: for zone of inhibition at 4000 µg/mL: MTCC 96, 24 h, read-out: DIZ
[14] = tested on: Rattus norvegicus; test: Antiinflammatory activity against carrageenan-induced paw edema male Wistar albino rat assessed as edema volume at 50 mg/kg, ip administered 30 mins prior to carrageenan-challenge measured after 4 hrs (reference value: 1.88 +/- 0.20 mL); format: functional; details: route intraperitoneal
[15] = tested on: Rattus norvegicus; test: Antiinflammatory activity against carrageenan-induced paw edema male Wistar albino rat assessed as edema volume at 50 mg/kg, po administered 30 mins prior to carrageenan-challenge measured after 1 hr (reference value: 1.11 +/- 0.12 mL); format: functional
[16] = tested on: Rattus norvegicus; test: Antiinflammatory activity against carrageenan-induced paw edema male Wistar albino rat at 50 mg/kg, ip administered 30 mins prior to carrageenan-challenge measured after 1 hr relative to control; format: functional; details: route intraperitoneal
[17] = tested on: Bacillus subtilis; test: Antimicrobial activity against Bacillus subtilis MTCC 121 assessed as growth inhibition at 4 mg/ml after 24 hrs by agar well diffusion method; format: functional; details: for zone of inhibition at 4000 µg/mL: MTCC 121, 24 h, read-out: DIZ
[18] = tested on: Saccharomyces cerevisiae; test: Antimicrobial activity against Saccharomyces cerevisiae MTCC 170 assessed as growth inhibition after 24 hrs by agar well diffusion method; format: functional

| Compound | Activity [2] [%] | Activity [4] [%] | Activity [5] [mL] | MIC [6] [µg/mL] | zone of inhibition at 4000 µg/mL [7] [mm] | diameter of the inhibition zone (DIZ) [9] | Activity [10] [mL] | Activity [11] [%] | DIZ [12] | Activity [14] [mL] | Activity [15] [mL] | Activity [16] [%] | MIC ([1]; MTCC 96, 24 h) [µg/mL] | MIC ([3]; MTCC 121, 24 h) [µg/mL] | zone of inhibition at 4000 µg/mL [8] [mm] | zone of inhibition at 4000 µg/mL [13] [mm] | zone of inhibition at 4000 µg/mL [17] [mm] | MIC ([18]; MTCC 170, 24 h) [µg/mL] | other results |
| --- | --- | --- | --- | --- | --- | --- | --- | --- | --- | --- | --- | --- | --- | --- | --- | --- | --- | --- | --- |
| CCOC(=O)c1sc(-c2cn(-c3ccccc3)nc2-c2ccccc2)nc1-c1ccc(Cl)cc1 | 87.6 | 87.23 | 0.15 | 50 (≈ 103 µM) | 17.3 | inactive | 0.24 | 87.23 | inactive | 0.22 | 0.22 | 80.18 |  |  |  |  |  |  | MIC [1]: inactive; MIC [3]: inactive; diameter of the inhibition zone (DIZ) [8]: inactive; diameter of the inhibition zone (DIZ) [13]: inactive; diameter of the inhibition zone (DIZ) [17]: inactive; MIC [18]: inactive |
| COc1ccc(-c2nn(-c3ccccc3)cc2-c2nc(-c3ccc(F)cc3)c(C(=O)O)s2)cc1 | 81.81 | 82.08 | 0.22 | 50 (≈ 106 µM) | 12 | inactive | 0.31 | 90.42 | inactive | 0.18 | 0.19 | 82.88 | 50 (≈ 106 µM) | 50 (≈ 106 µM) | 15.3 | 12 | 12 | 50 (≈ 106 µM) |  |
| O=C(O)c1sc(-c2cn(-c3ccccc3)nc2-c2ccc(F)cc2)nc1-c1ccc(Cl)cc1 | 47.1 | 56.14 | 0.64 | 25 (≈ 52.5 µM) | 20.6 | inactive | 0.75 | 80.31 | inactive | 0.37 | 0.33 | 70.27 | 25 (≈ 52.5 µM) | 25 (≈ 52.5 µM) | 20.6 | 21.6 | 18.3 | 25 (≈ 52.5 µM) |  |
| O=C(O)c1sc(-c2cn(-c3ccccc3)nc2-c2ccc(F)cc2)nc1-c1ccc(F)cc1 | 52.89 | 64.73 | 0.57 | 25 (≈ 54.4 µM) | 19.6 | inactive | 0.61 | 75 | inactive | 0.47 | 0.23 | 79.27 | 50 (≈ 109 µM) | 50 (≈ 109 µM) | 17.6 | 15.3 | 17.6 | 25 (≈ 54.4 µM) |  |
| COc1ccc(-c2nn(-c3ccccc3)cc2-c2nc(-c3ccccc3)c(C(=O)O)s2)cc1 | 86.77 | 87.86 | 0.16 | 50 (≈ 110 µM) | 16.3 | inactive | 0.21 | 87.76 | inactive | 0.23 | 0.2 | 81.98 | 25 (≈ 55.1 µM) | 25 (≈ 55.1 µM) | 16 | 21.6 | 18.6 | 50 (≈ 110 µM) |  |
| COc1ccc(-c2nc(-c3cn(-c4ccccc4)nc3-c3ccccc3)sc2C(=O)O)cc1 | 79.33 | 86.12 | 0.25 | 50 (≈ 110 µM) | 15.3 | inactive | 0.24 | 88.29 | inactive | 0.22 | 0.19 | 82.88 | 25 (≈ 55.1 µM) | 50 (≈ 110 µM) | 21.3 | 20.3 | 17.6 | 25 (≈ 55.1 µM) |  |
